Experimental data reported in patent US9776979B2, “EBI2 modulators” (Sanford-Burnham Medical Research Institute, priority 2013, dated 2017).

These compounds were tested against EBI2 (Homo sapiens, UniProt P32249) (assay: Cell-based luminescent assay (EBI2 modulation)). Settings: cell-based luminescence; 7a,25-OHC final assay concentration 80 nM; 60 minutes incubation; read-out: IC50.
Sequence of EBI2 (P32249 whole entry): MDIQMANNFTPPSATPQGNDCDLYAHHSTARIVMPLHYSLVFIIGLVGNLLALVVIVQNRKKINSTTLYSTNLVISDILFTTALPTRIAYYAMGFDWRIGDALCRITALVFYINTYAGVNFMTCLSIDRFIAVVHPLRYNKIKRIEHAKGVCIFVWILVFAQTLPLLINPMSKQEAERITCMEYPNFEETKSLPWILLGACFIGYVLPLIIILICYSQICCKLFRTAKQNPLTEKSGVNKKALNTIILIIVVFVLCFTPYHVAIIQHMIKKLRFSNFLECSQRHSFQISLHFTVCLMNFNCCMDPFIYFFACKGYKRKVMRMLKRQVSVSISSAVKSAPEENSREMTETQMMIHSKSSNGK
Summary of the method: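 Cells plated overnight at 37° C, then exposed to compound at 4-5 uM final with 80 nM 7a,25-OHC agonist for 60 min at 37° C. Luminescence read after 60 min detection at 25° C in the dark; values normalized to neutral and stimulator controls and plate-pattern corrected.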
With `O=C(Nc1cccc(Cl)c1)C1CCN(C(=O)c2cc3cc(Cl)ccc3[nH]2)CC1` [Compound C396, {1-[(5-chloroindol-2-yl)carbonyl](4-piperidyl)}-N-(3-chlorophenyl)carboxamide] the IC50 was under 100 nM.
For `O=Cc1ccc(C(=O)N2CCN(C(=O)c3cc4cc(Cl)ccc4[nH]3)CC2)cc1` [Compound C397, 4-({4-[(5-chloroindol-2-yl)carbonyl]piperazinyl}carbonyl)benzaldehyde], the IC50 was under 100 nM.
In the case of `O=C(C#Cc1ccc(Cl)cc1)N1CCN(C(=O)c2ccc(F)cc2C(F)(F)F)CC1` [Compound C399, 3-(4-chlorophenyl)-1-(4-{[4-fluoro-2-(trifluoromethyl)phenyl]carbonyl}piperazinyl)prop-2-yn-1-one], the IC50 is reported as under 100 nM.
For `Cc1cccc(N2CCN(C(=O)c3cc4cc(Cl)ccc4[nH]3)CC2)c1C` [Compound C400, 4-(2,3-dimethylphenyl)piperazinyl 5-chloroindol-2-yl ketone], the IC50 was under 100 nM.
In the case of `O=C(C#Cc1ccc(Br)cc1)N1CCN(Cc2ccc(F)cc2)CC1` [Compound C401, 3-(4-bromophenyl)-1-{4-[(4-fluorophenyl)methyl]piperazinyl}prop-2-yn-1-one], the IC50 is reported as under 100 nM.
`O=C(c1cc2cc(Cl)ccc2[nH]1)N1CCN(Cc2ccc(C(F)(F)F)c(F)c2)CC1` [Compound C402, 5-chloroindol-2-yl 4-{[3-fluoro-4-(trifluoromethyl)phenyl]methyl}piperazinyl ketone] gave an IC50 of under 100 nM.
`O=C(c1cc2cc(Cl)ccc2[nH]1)N1CCN(Cc2cccc(-c3ccccc3)c2)CC1` [Compound C403, 5-chloroindol-2-yl 4-[(3-phenylphenyl)methyl]piperazinyl ketone] was tested, and the IC50 was under 100 nM.
`O=C(/C=C/c1ccc(Br)cc1F)N1CCN(S(=O)(=O)c2ccccc2)CC1` [Compound C404, (2E)-3-(4-bromo-2-fluorophenyl)-1-[4-(phenylsulfonyl)piperazinyl]prop-2-en-1-one] gave an IC50 of under 100 nM.
`O=C(CCc1ccc(F)cc1)N1CCN(S(=O)(=O)/C=C/c2ccccc2)CC1` [Compound C406, 1-{4-[((1E)-2-phenylvinyl)sulfonyl]piperazinyl}-3-(4-fluorophenyl)propan-1-one] was tested, and the IC50 was 100 to 500 nM.
Compound `O=C(/C=C/c1ccccc1)N1CCN(CCOc2ccc(Cl)cc2Cl)CC1` [Compound C407, (2E)-1-{4-[2-(2,4-dichlorophenoxy)ethyl]piperazinyl}-3-phenylprop-2-en-1-one] has an IC50 of 100 to 500 nM.
`O=C(C#Cc1ccc(Br)cc1)N1CCN(Cc2ccc(C(F)(F)F)cc2)CC1` [Compound C408, 3-(4-bromophenyl)-1-(4-{[4-(trifluoromethyl)phenyl]methyl}piperazinyl)prop-2-yn-1-one] gave an IC50 of 100 to 500 nM.
`O=C(c1ccc(B(O)O)cc1)N1CCN(C(=O)c2cc3cc(Cl)ccc3[nH]2)CC1` [Compound C409, 4-(4-(5-chloro-1H-indole-2-carbonyl)piperazine-1-carbonyl)phenylboronic acid] showed an IC50 of 100 to 500 nM.
In the case of `O=C(c1cc2cc(Cl)ccc2[nH]1)N1CCC(Oc2ccccc2)CC1` [Compound C413, 5-chloroindol-2-yl 4-phenoxypiperidyl ketone], the IC50 is reported as 100 to 500 nM.
In the case of `O=C(Oc1ccccc1)N1CCN(C(=O)c2cc3cc(Cl)ccc3[nH]2)CC1` [Compound C416, phenyl 4-[(5-chloroindol-2-yl)carbonyl]piperazinecarboxylate], the IC50 is reported as 100 to 500 nM.
For `O=C(Nc1cccc(F)c1)C1CCN(C(=O)c2cc3cc(Cl)ccc3[nH]2)CC1` [Compound C417, {1-[(5-chloroindol-2-yl)carbonyl](4-piperidyl)}-N-(3-fluorophenyl)carboxamide], the IC50 was 100 to 500 nM.
With `O=C(c1cc2cc(Cl)ccc2[nH]1)N1CCN(Cc2ccc(F)c(C(F)(F)F)c2)CC1` [Compound C420, 5-chloroindol-2-yl 4-{[4-fluoro-3-(trifluoromethyl)phenyl]methyl}piperazinyl ketone] the IC50 was 100 to 500 nM.
`COc1ccc(-c2ccc(S(=O)(=O)N3CCN(C(=O)c4cc5cc(Cl)ccc5[nH]4)CC3)cc2)cc1` [Compound C421, 5-chloroindol-2-yl 4-{[4-(4-methoxyphenyl)phenyl]sulfonyl}piperazinyl ketone] was tested, and the IC50 was 100 to 500 nM.
For `O=C(c1cc2cc(Cl)ccc2[nH]1)N1CCN(Cc2cc(C(F)(F)F)cc(C(F)(F)F)c2)CC1` [Compound C423, 4-{[3,5-bis(trifluoromethyl)phenyl]methyl}piperazinyl 5-chloroindol-2-yl ketone], the IC50 was 100 to 500 nM.
`O=C(c1cc2cc(Cl)ccc2[nH]1)N1CCN(Cc2ccc(F)cc2C(F)(F)F)CC1` [Compound C426, 5-chloroindol-2-yl 4-{[4-fluoro-2-(trifluoromethyl)phenyl]methyl}piperazinyl ketone] was tested, and the IC50 was 100 to 500 nM.
`O=C(c1cc2cc(Cl)ccc2[nH]1)N1CCN(Cc2ccc(F)cc2F)CC1` [Compound C427, 4-[(2,4-difluorophenyl)methyl]piperazinyl 5-chloroindol-2-yl ketone] gave an IC50 of 100 to 500 nM.
Work on `O=C(c1cc2cc(Cl)ccc2[nH]1)N1CCN(Cc2ccc(Cl)cc2C(F)(F)F)CC1` [Compound C428, 5-chloroindol-2-yl 4-{[4-chloro-2-(trifluoromethyl)phenyl]methyl}piperazinyl ketone] yielded an IC50 of 100 to 500 nM.
`O=C(Nc1ccc(Cl)cc1)N1CCN(C(=O)c2cc3cc(Cl)ccc3[nH]2)CC1` [Compound C429, {4-[(5-chloroindol-2-yl)carbonyl]piperazinyl}-N-(4-chlorophenyl)carboxamide] gave an IC50 of 100 to 500 nM.
`O=C(C=Cc1ccc2c(c1)OCO2)N1CCN(C(=O)c2ccc(C(F)(F)F)cc2)CC1` [Compound C430, 3-(2H-benzo[3,4-d]1,3-dioxolen-5-yl)-1-(4-{[4-(trifluoromethyl)phenyl]carbonyl}piperazinyl)prop-2-en-1-one] showed an IC50 of 100 to 500 nM.
`O=C(c1cc2cc(Cl)ccc2[nH]1)N1CCN(c2ccc(F)cc2F)CC1` [Compound C434, 4-(2,4-difluorophenyl)piperazinyl 5-chloroindol-2-yl ketone] was tested, and the IC50 was 100 to 500 nM.
Compound `O=C(C#Cc1ccc(Cl)cc1)N1CCN(Cc2ccc(F)cc2C(F)(F)F)CC1` [Compound C435, 3-(4-chlorophenyl)-1-(4-{[4-fluoro-2-(trifluoromethyl)phenyl]methyl}piperazinyl)prop-2-yn-1-one] has an IC50 of 100 to 500 nM.
Work on `O=C(c1cc(Br)c[nH]1)N1CCN(C(c2ccccc2)c2ccccc2)CC1` [Compound C436, 4-(diphenylmethyl)piperazinyl 4-bromopyrrol-2-yl ketone] yielded an IC50 of 100 to 500 nM.
`O=C(C#Cc1ccc(Cl)c(Cl)c1)N1CCN(C(=O)c2ccc(F)cc2C(F)(F)F)CC1` [Compound C437, 3-(3,4-dichlorophenyl)-1-(4-{[4-fluoro-2-(trifluoromethyl)phenyl]carbonyl}piperazinyl)prop-2-yn-1-one] gave an IC50 of 100 to 500 nM.
`O=C(/C=C/c1ccc(Cl)cc1F)N1CCN(S(=O)(=O)c2ccccc2)CC1` [Compound C439, (2E)-3-(4-chloro-2-fluorophenyl)-1-[4-(phenylsulfonyl)piperazinyl]prop-2-en-1-one] was tested, and the IC50 was 100 to 500 nM.
`O=C(c1cccc(B(O)O)c1)N1CCN(C(=O)c2cc3cc(Cl)ccc3[nH]2)CC1` [Compound C440, 3-(4-(5-chloro-1H-indole-2-carbonyl)piperazine-1-carbonyl)phenylboronic acid] showed an IC50 of 100 to 500 nM.
Compound `O=C(/C=C/c1cc(Br)ccc1F)N1CCN(C(c2ccccc2)c2ccccc2)CC1` [Compound C441, (2E)-1-[4-(diphenylmethyl)piperazinyl]-3-(5-bromo-2-fluorophenyl)prop-2-en-1-one] has an IC50 of 100 to 500 nM.
Work on `Cc1ccccc1/C=C/C(=O)N1CCN(S(=O)(=O)c2ccc(Br)cc2)CC1` [Compound C442, (2E)-1-{4-[(4-bromophenyl)sulfonyl]piperazinyl}-3-(2-methylphenyl)prop-2-en-1-one] yielded an IC50 of 100 to 500 nM.
`O=C(c1cc2ccc(Cl)cc2[nH]1)N1CCN(C(=O)c2ccc(F)cc2C(F)(F)F)CC1` [Compound C447, 6-chloroindol-2-yl 4-{[4-fluoro-2-(trifluoromethyl)phenyl]carbonyl}piperazinyl ketone] gave an IC50 of 100 to 500 nM.
`CC(C)(C)c1ccc(S(=O)(=O)N2CCN(C(=O)/C=C/c3ccc(Cl)cc3F)CC2)cc1` [Compound C448, (2E)-1-(4-{[4-(tert-butyl)phenyl]sulfonyl}piperazinyl)-3-(4-chloro-2-fluorophenyl)prop-2-en-1-one] showed an IC50 of 100 to 500 nM.
`O=C(c1cc2cc(Cl)ccc2[nH]1)N1CCC(NC2CCCC2)CC1` [Compound C449, 5-chloroindol-2-yl 4-(cyclopentylamino)piperidyl ketone] showed an IC50 of 100 to 500 nM.
Compound `O=C(Nc1ccc(F)c(C(F)(F)F)c1)N1CCN(C(=O)c2cc3cc(Cl)ccc3[nH]2)CC1` [Compound C450, {4-[(5-chloroindol-2-yl)carbonyl]piperazinyl}-N-[4-fluoro-3-(trifluoromethyl)phenyl]carboxamide] has an IC50 of 100 to 500 nM.
In the case of `O=C(Nc1cccc(F)c1)N1CCN(C(=O)c2cc3cc(Cl)ccc3[nH]2)CC1` [Compound C451, {4-[(5-chloroindol-2-yl)carbonyl]piperazinyl}-N-(3-fluorophenyl)carboxamide], the IC50 is reported as 100 to 500 nM.
`O=C(c1cc2ccccc2o1)N1CCN(Cc2ccc3c(c2)OCO3)CC1` [Compound C452, 4-(2H-benzo[d]1,3-dioxolan-5-ylmethyl)piperazinyl benzo[d]furan-2-yl ketone] gave an IC50 of 100 to 500 nM.
`Cc1ccc(/C=C/C(=O)N2CCN(C(c3ccccc3)c3ccccc3)CC2)cc1` [Compound C453, (2E)-1-[4-(diphenylmethyl)piperazinyl]-3-(4-methylphenyl)prop-2-en-1-one] gave an IC50 of 100 to 500 nM.
With `O=C(c1cc2cc(Cl)ccc2[nH]1)N1CCN(S(=O)(=O)c2ccc(-c3ccccc3)cc2)CC1` [Compound C454, 5-chloroindol-2-yl 4-[(4-phenylphenyl)sulfonyl]piperazinyl ketone] the IC50 was 100 to 500 nM.
`O=C(/C=C/c1ccccc1F)N1CCN(S(=O)(=O)c2ccc(Br)cc2)CC1` [Compound C455, (2E)-1-{4-[(4-bromophenyl)sulfonyl]piperazinyl}-3-(2-fluorophenyl)prop-2-en-1-one] showed an IC50 of 100 to 500 nM.
